Source: the supplement of paper PMC10307832

Tests used:
Assay in all cases: relative viability (nuclei count vs DMSO), 5 days (fraction); higher = more cells survive
Ricolinostat + Foretinib = compound: O=C(CCCCCCNC(=O)c1cnc(N(c2ccccc2)c2ccccc2)nc1)NO [Ricolinostat] + COc1cc2c(Oc3ccc(NC(=O)C4(C(=O)Nc5ccc(F)cc5)CC4)cc3F)ccnc2cc1OCCCN1CCOCC1 [Foretinib] (partner 0.25 µM)
How it was run: (§1)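 Medians of duplicate plates are given as relative viability. That measure is the nuclei count in treated wells divided by the count in vehicle wells. Counts were taken on 4× images of lung cancer cell lines in 1536-well plates, 5 days after pin-tool dosing the day after seeding with one drug alone or a fixed anchor-drug dose plus five library-drug doses (not always all listed) in √10 steps.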

Ricolinostat + Dasatinib = compound: O=C(CCCCCCNC(=O)c1cnc(N(c2ccccc2)c2ccccc2)nc1)NO [Ricolinostat] + Cc1nc(Nc2ncc(C(=O)Nc3c(C)cccc3Cl)s2)cc(N2CCN(CCO)CC2)n1 [Dasatinib] (partner 0.075 µM)
How it was run: as §1

[1] = compound: C1=CC=C(C(=C1)C2=CC=C(C=C2)C3=CSC4=C3C(=C(C(=O)N4)C#N)O)O + Nc1nc2[nH]cc(CCc3ccc(C(=O)N[C@@H](CCC(=O)O)C(=O)O)cc3)c2c(=O)[nH]1 [Pemetrexed] (partner 0.2 µM)
How it was run: as §1

TGX 221 + AZD7762 = compound: CC1=CN2C(=O)C=C(N=C2C(=C1)C(C)NC3=CC=CC=C3)N4CCOCC4 [TGX 221] + NC(=O)Nc1cc(-c2cccc(F)c2)sc1C(=O)N[C@H]1CCCNC1 [AZD7762] (partner 0.2 µM)
How it was run: as §1

| Cell Line | relative viability (Ricolinostat + Foretinib; first compound 0.08 µM) | relative viability (Ricolinostat + Foretinib; first compound 0.253 µM) | relative viability (Ricolinostat + Foretinib; first compound 0.8 µM) | relative viability (Ricolinostat + Foretinib; first compound 2.53 µM) | relative viability (Ricolinostat + Dasatinib; first compound 0.08 µM) | relative viability (Ricolinostat + Dasatinib; first compound 0.253 µM) | relative viability (Ricolinostat + Dasatinib; first compound 0.8 µM) | relative viability (Ricolinostat + Dasatinib; first compound 2.53 µM) | relative viability ([1]; first compound 0.08 µM) | relative viability ([1]; first compound 0.253 µM) | relative viability ([1]; first compound 0.8 µM) | relative viability ([1]; first compound 2.53 µM) | relative viability ([1]; first compound 8 µM) | relative viability (TGX 221 + AZD7762; first compound 0.08 µM) | relative viability (TGX 221 + AZD7762; first compound 0.253 µM) | relative viability (TGX 221 + AZD7762; first compound 0.8 µM) | relative viability (TGX 221 + AZD7762; first compound 2.53 µM) | relative viability (TGX 221 + AZD7762; first compound 8 µM) |
| --- | --- | --- | --- | --- | --- | --- | --- | --- | --- | --- | --- | --- | --- | --- | --- | --- | --- | --- |
| IA-LM | 0.959 | 1.01 | 1.09 | 0.932 |  |  |  |  |  |  |  |  |  |  |  |  |  |  |
| LC-2-ad | 0.747 | 0.874 | 0.886 | 0.761 | 0.41 | 0.566 | 0.482 | 0.455 | 0.268 | 0.288 | 0.279 | 0.306 | 0.257 | 0.832 | 0.823 | 0.832 | 0.777 | 0.736 |
| LCLC-97TM1 | 0.953 | 0.89 | 1 | 0.933 | 0.727 | 0.853 | 0.878 | 0.34 | 0.177 | 0.179 | 0.16 | 0.182 | 0.166 | 0.139 | 0.273 | 0.247 | 0.128 | 0.277 |
| LCLC-103H | 0.688 | 0.798 | 0.787 | 0.748 | 0.437 | 0.55 | 0.423 | 0.464 | 0.51 | 0.453 | 0.431 | 0.456 | 0.519 | 0.789 | 0.762 | 0.771 | 0.707 | 0.731 |
| LK-2 | 1.18 | 1.35 | 1.51 | 0.934 | 0.34 | 0.271 | 0.444 | 0.35 | 0.168 | 0.245 | 0.236 | 0.325 | 0.196 | 0.377 | 0.434 | 0.436 | 0.395 | 0.521 |
| LOU-NH91 | 0.742 | 0.904 | 0.97 | 0.918 | 0.453 | 0.543 | 0.558 | 0.533 | 0.386 | 0.337 | 0.399 | 0.384 | 0.406 | 0.73 | 0.758 | 0.746 | 0.789 | 0.714 |
| LU99A | 0.727 | 0.631 | 0.734 | 0.571 | 0.461 | 0.583 | 0.465 | 0.512 | 0.191 | 0.138 | 0.265 | 0.178 | 0.335 | 0.263 | 0.387 | 0.391 | 0.402 | 0.305 |
| NCI-H520 |  | 0.889 | 0.89 | 0.688 |  | 0.313 | 0.211 | 0.231 | 0.484 | 0.676 | 0.804 | 0.705 | 0.608 |  |  |  |  |  |
| NCI-H522 |  |  |  |  | 0.867 | 0.884 | 0.946 | 0.872 | 0.965 | 1.02 | 1.04 | 0.911 | 0.878 | 0.771 | 0.81 | 0.888 | 0.871 | 0.904 |
| NCI-H661 | 0.849 | 0.983 | 1 | 0.81 | 0.795 | 0.88 | 0.889 | 0.731 | 0.834 | 1 | 0.933 | 0.937 | 0.85 |  |  |  |  |  |
| NCI-H727 | 0.746 | 0.741 | 0.948 | 0.884 | 0.352 | 0.479 | 0.47 | 0.452 |  |  |  |  |  | 0.492 | 0.688 | 0.695 | 0.592 | 0.546 |
| NCI-H1299 | 1.05 | 1.07 | 1.07 | 1.06 |  |  |  |  |  |  |  |  |  |  |  |  |  |  |
| NCI-H1563 | 0.89 | 0.874 | 0.844 | 0.793 | 0.472 | 0.461 | 0.441 | 0.494 | 0.64 | 0.688 | 0.774 | 0.746 | 0.783 |  |  |  |  |  |
| NCI-H1623 | 0.795 | 0.9 | 0.825 | 0.739 | 0.484 | 0.612 | 0.528 | 0.475 |  |  |  |  |  |  |  |  |  |  |
| NCI-H1648 |  |  |  |  |  |  |  |  |  | 0.682 | 0.732 | 0.813 | 0.747 |  | 0.784 | 0.793 | 0.628 | 0.672 |
| NCI-H1650 | 1.17 | 1.05 | 0.886 | 0.635 | 0.275 | 0.381 | 0.289 | 0.287 | 0.339 | 0.359 | 0.461 | 0.33 | 0.32 |  |  |  |  |  |
| NCI-H1703 |  | 0.398 | 0.318 | 0.513 |  |  |  |  |  |  |  |  |  | 0.129 | 0.12 | 0.12 | 0.116 | 0.146 |
| NCI-H2009 | 1.16 | 1.19 | 1.2 | 1.05 | 0.231 | 0.295 | 0.347 | 0.365 | 0.97 | 1.04 | 1.02 | 1.1 | 1.08 |  |  |  |  |  |
| NCI-H2023 |  | 0.799 | 0.786 | 0.742 |  | 0.569 | 0.535 | 0.472 | 0.188 | 0.296 | 0.368 | 0.208 | 0.323 |  |  |  |  |  |
| NCI-H2228 | 0.754 | 1.04 | 0.783 | 0.738 | 0.432 | 0.591 | 0.457 | 0.382 | 0.371 | 0.454 | 0.351 | 0.332 | 0.367 |  |  |  |  |  |
| SK-LU-1 | 0.739 | 0.908 | 0.772 | 0.722 | 0.16 | 0.153 | 0.18 | 0.175 | 0.933 | 0.943 | 0.918 | 1.03 | 0.806 |  |  |  |  |  |
| SK-MES-1 | 0.782 | 0.946 | 0.928 | 0.917 | 0.25 | 0.288 | 0.451 | 0.44 | 1.02 | 1.03 | 1.02 | 0.987 | 1.02 |  |  |  |  |  |
| SW 1573 | 0.863 | 1.12 | 0.899 | 0.918 | 0.756 | 0.507 | 0.695 | 0.581 | 0.61 | 0.982 | 0.788 | 0.851 | 0.728 |  |  |  |  |  |
| UMC-11 | 1.13 | 1.07 | 0.864 | 0.504 | 0.427 | 0.39 | 0.399 | 0.242 |  | 0.577 | 0.878 | 0.83 | 0.628 |  |  |  |  |  |
